Here are results for two substances from patent US11572590B2, “Methods for evaluating tumor cell spheroids using 3D microfluidic cell culture device” (Dana-Farber Cancer Institute, Inc., priority 2017, dated 2023).

In this assay the test system is PDOTS. Description: Bead-based cytokine profiling of PDOTS after ex vivo checkpoint blockade. It counts as cell-based, human. How it is done: Fresh tumor specimens (murine and human patients) were received in media (DMEM) on ice and minced in a 10 cm dish (on ice) using sterile forceps and scalpel. Minced tumor was resuspended in DMEM ([…], […] sodium pyruvate, 1:100 penicillin-streptomycin) (Corning CellGro, Manassas, Va.) +10% FBS (Gemini Bio-Products, West Sacramento, Calif.), 100 U/mL collagenase type IV (Life Technologies, Carlsbad, Calif.), and 15 mM HEPES (Life Technologies, Carlsbad, Calif.), except for CT26 tumors that were prepared in RPMI. Samples were pelleted and resuspended in 10-20 mL media. Red blood cells were removed from visibly bloody samples using RBC Lysis Buffer (Boston Bio-Products, Ashland, Mass.). […]
Two multiplex assays were performed utilizing a bead-based immunoassay approach, the Bio-Plex Pro™ Human Cytokine 40-plex Assay (Cat #171AK99MR2) and Bio-Plex Pro™ Mouse Cytokine Panel 1, 23-plex (Cat #M60009RDPD) on a Bio-plex 200 system (Cat #171000201). […] Fold changes relative to the MDOT/PDOT control were calculated and plotted as log 2FC. Lower and upper limits of quantitation (LLOQ/ULOQ) were imputed from standard curves for cytokines above or below detection. […]

With “CTLA-4 blockade: PDOTS were treated with anti-CTLA-4 (ipilimumab, 50 μg/mL)”, the “CCL19/CXCL13 induction in PDOTS” value (Day 3, ipilimumab 50 μg/mL alone or with pembrolizumab 250 μg/mL) is “comparatively minimal”. As to “PD-1 blockade: PDOTS were treated with anti-PD-1 (pembrolizumab, 250 μg/mL)”, the “PDOTS samples with upregulation of CCL19 and CXCL13” value (Day 3 cytokine release, n=28, pembrolizumab 250 μg/mL) is listed as 23/28.
